{"source": "patent US6482603B1", "about": "“Method of detecting drug-receptor and protein-protein interactions” (Yale University, priority 1998, dated 2002)", "key": {"[1]": {"system": "yeast expressing the Sec-1 G protein gamma subunit fusion and syntaxin", "test": "growth inhibition assay (halo assay)", "format": "cell-based, Saccharomyces cerevisiae", "conditions": "filter disks containing 5 or 15 μg of α-factor; strain MHY6; documented after 2 days at 30° C.", "protocol": "(§1) Standard methods for the growth, maintenance, and transformation of yeast and bacteria, and for the manipulation of DNA, were used throughout (Ausubel et al. 1987, Current Protocols in Molecular Biology. Wiley-Interscience, New York). The Escherichia coli strain DH5α was used for the maintenance of plasmids. Yeast cells were grown in synthetic medium supplemented with amino acids, adenine and 2% glucose (SCD) or 2% galactose plus 0.2% sucrose (SCG); tryptophan and/or uracil were omitted to maintain selection for plasmids. The Saccharomyces cerevisiae strain used in this study was MHY6 (from Jeremy Thomer) (MATa ura3-52 lys2-801^am ade2-101^oc trp1-Δ63 his3-Δ200 leu2-Δ1 ste18Δ::LEU2) (derived from Sikorski et al. (1989) Genetics 122(1):19-27).\n(§2) To evaluate to the interactions of the Sec-1 G protein gamma subunit fusion and syntaxin, a growth inhibition assay (halo assay) was carried out by diluting 50 μL from an overnight culture grown at 30° C. in selective media with 2 mL sterile water, followed by the addition of an equal volume of 1% (w/v) dissolved agar (55° C.) and poured onto a culture dish of SCD-Trp-Ura or SCG-Trp-Ura medium. Sterile filter discs were spotted with 5 μg or 15 μg of synthetic α-factor pheromone and placed onto the nascent lawn to induce growth arrest. The resulting zone of growth-arrested cells was documented after 2 days at 30° C. […]"}, "[2]": {"system": "control cells which express the Sec-1 G protein gamma fusion alone and cells which express syntaxin alone", "test": "growth inhibition assay (halo assay), control cells", "format": "cell-based, Saccharomyces cerevisiae", "conditions": "upon pheromone addition, filter disks with 5 or 15 μg, 2 days at 30° C.", "protocol": "as §1, §2"}}}
{"substance": "α-factor", "values": [{"measurement": "α-factor induced growth arrest (zone of inhibition around filter paper disks)", "setting": "[1]", "value": "no zone of inhibition"}, {"measurement": "pheromone induced growth arrest", "setting": "[2]", "value": "growth arrest"}]}
